The text below walks through data of patent publication US20260232682A1, “GSPT1 DEGRADER COMPOUNDS” (Captor Therapeutics S.A., priority 2023, published 2026).

Experiment [1] deals with [CK1α]-[compound]-[CRBN/DDB1] ternary complex (Homo sapiens, UniProt P48729+Q96SW2). The experiment is described as follows: AlphaLISA assay for off-target recruitment detection, CK1α. It is filed as binding. As to conditions: 1 μM compound; normalized to FPFT-2216; read-out: Normalized ternary complex response, CK1α. The procedure, abridged:
(§1)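 Neo-substrate with 40 μg/ml donor beads and 200 nM 6×His-CRBN/DDB1 with 40 μg/ml anti-His acceptor beads were each prepared in PBS pH 7.4 with Tween-20 and 1 mM DTT, preincubated 30 min at RT, then mixed. Compounds at 2% DMSO were incubated 30 min at 25 °C, read at 680/615 nm, and normalised between DMSO background and reference glue maximum.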
(Alpha assays give light when donor and acceptor beads are brought close together.)

For experiment [2], the target named is T1, [IKZF2 ZF2]-[compound]-[CRBN/DDB1] ternary complex (Homo sapiens, UniProt Q96SW2+Q9UKS7).
T1 construct: IKZF2 ZF2
The experiment is described as follows: AlphaLISA assay for off-target recruitment detection, IKZF2 ZF2. The format is binding. As to conditions: 1 μM compound; normalized to Helios modulator; read-out: Normalized ternary complex response, IKZF2 ZF2. The essentials: as §1

The target in experiment [3] is T2, [IKZF1 ZF2]-[compound]-[CRBN/DDB1] ternary complex (Homo sapiens, UniProt Q13422+Q96SW2).
T2 construct: IKZF1 ZF2
The experiment is described as follows: AlphaLISA assay for off-target recruitment detection, IKZF1 ZF2. It is filed as binding. The settings on record: 1 μM compound; normalized to Lenalidomide; read-out: Normalized ternary complex response, IKZF1 ZF2. The essentials: as §1

In experiment [4] the target is T3, [SALL4 ZF2]-[compound]-[CRBN/DDB1] ternary complex (Homo sapiens, UniProt Q96SW2+Q9UJQ4).
T3 construct: SALL4 ZF2
Kind of experiment: AlphaLISA assay for off-target recruitment detection, SALL4 ZF2. It is filed as binding. As to conditions: 1 μM compound; normalized to Lenalidomide; read-out: Normalized ternary complex response, SALL4 ZF2. The essentials:
as §1

Experiment [5] has as its target [GSPT1]-[compound of formula (I)]-[CRBN/DDB1] complex (Homo sapiens, UniProt P15170+Q96SW2). The experiment is described as follows: AlphaLISA ternary complex formation assay (GSPT1). It is filed as binding. As to conditions: 0.5 h; 1 μM compound; normalized to reference compound CC-885; read-out: Normalized AlphaLISA ternary complex average signal at 1 μM molecule. The procedure, abridged:
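Biotinylated GSPT1 on streptavidin donor beads and 6×His-CRBN/DDB1 on anti-His acceptor beads (each 200 nM before mixing) in HBS pH 7.4 with 0.1% Tween-20 and 1 mM DTT, 2% DMSO final, 30 min at 25 °C. AlphaLISA luminescence is normalized between DMSO background and the reference compound's maximum.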

Experiment [6] addresses CRBN/DDB1 protein complex (Homo sapiens, UniProt Q96SW2). Kind of experiment: CRBN displacement TR-FRET assay. The settings on record: Thalidomide-Red tracer, 6×His-CRBN/DDB1; read-out: CRBN binding Ki. The procedure, abridged: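 Test compound at various concentrations competed with 6.8 nM Thalidomide-Red tracer for 5 nM 6×His-CRBN/DDB1, detected with 0.5 nM anti-His-Eu cryptate in buffer with 1 mM DTT and 1% DMSO. Incubation ran 180 min at room temperature with a time-resolved fluorescence read-out. IC50 values were converted to Ki by Cheng–Prusoff using tracer Kd and protein and tracer concentrations.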

T2 sequence (Q13422 145-167 limits assumed): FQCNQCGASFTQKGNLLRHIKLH
T2 sequence (Q96SW2 whole entry): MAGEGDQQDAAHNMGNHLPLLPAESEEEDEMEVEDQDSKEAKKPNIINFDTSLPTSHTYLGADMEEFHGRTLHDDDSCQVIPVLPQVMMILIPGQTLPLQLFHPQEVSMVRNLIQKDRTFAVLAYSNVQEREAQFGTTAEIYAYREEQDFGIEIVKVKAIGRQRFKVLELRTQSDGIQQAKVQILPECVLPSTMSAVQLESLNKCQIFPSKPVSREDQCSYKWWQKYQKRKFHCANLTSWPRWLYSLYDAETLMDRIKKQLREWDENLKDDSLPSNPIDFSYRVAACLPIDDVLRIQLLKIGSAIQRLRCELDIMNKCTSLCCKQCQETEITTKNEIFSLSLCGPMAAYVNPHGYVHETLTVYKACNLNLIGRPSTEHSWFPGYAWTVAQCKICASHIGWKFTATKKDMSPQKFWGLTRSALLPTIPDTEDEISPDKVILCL
T2 sequence (Q16531 whole entry partner): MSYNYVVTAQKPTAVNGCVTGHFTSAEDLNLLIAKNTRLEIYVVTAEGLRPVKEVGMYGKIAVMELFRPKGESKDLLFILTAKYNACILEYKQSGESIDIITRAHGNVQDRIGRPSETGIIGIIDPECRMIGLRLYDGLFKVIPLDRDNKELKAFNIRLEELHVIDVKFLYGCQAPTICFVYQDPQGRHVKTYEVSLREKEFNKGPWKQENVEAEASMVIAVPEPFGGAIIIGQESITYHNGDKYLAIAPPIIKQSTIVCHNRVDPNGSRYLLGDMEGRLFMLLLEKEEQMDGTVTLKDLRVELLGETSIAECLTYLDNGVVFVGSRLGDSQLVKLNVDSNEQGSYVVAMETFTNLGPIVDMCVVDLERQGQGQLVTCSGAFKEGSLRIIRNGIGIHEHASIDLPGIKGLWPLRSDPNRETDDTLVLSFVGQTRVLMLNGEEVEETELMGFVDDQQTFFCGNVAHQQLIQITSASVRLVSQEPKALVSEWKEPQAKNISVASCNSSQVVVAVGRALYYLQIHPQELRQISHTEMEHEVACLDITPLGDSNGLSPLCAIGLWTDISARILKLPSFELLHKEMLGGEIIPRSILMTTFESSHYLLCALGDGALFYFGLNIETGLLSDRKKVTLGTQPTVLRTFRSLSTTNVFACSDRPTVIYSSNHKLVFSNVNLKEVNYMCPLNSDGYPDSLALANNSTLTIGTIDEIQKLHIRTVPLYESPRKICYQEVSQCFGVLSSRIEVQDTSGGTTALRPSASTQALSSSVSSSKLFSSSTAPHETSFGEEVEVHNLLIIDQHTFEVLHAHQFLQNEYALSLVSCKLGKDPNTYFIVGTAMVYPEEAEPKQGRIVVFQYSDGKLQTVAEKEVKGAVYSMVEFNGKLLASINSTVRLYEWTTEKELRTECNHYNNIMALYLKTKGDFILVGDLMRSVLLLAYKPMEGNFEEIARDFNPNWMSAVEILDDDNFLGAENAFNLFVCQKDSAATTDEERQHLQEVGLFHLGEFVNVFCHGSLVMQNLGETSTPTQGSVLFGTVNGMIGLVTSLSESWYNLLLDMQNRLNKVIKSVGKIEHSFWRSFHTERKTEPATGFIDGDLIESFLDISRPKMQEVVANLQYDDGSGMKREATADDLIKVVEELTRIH
[GSPT1]-[compound of formula (I)]-[CRBN/DDB1] complex, sequence (P15170 whole entry): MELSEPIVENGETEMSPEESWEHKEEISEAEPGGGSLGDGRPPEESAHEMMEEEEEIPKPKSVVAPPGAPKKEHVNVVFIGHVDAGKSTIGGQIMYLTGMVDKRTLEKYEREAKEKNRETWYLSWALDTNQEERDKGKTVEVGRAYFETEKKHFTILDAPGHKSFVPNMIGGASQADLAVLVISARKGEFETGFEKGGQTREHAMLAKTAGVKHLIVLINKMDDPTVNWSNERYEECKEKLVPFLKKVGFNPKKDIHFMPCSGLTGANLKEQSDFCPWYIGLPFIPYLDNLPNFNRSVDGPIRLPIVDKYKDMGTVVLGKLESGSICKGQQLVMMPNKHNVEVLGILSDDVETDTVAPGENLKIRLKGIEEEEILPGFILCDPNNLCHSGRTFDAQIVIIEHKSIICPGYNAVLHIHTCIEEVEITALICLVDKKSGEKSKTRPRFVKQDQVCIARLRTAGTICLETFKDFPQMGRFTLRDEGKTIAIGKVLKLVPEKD
[GSPT1]-[compound of formula (I)]-[CRBN/DDB1] complex, sequence (Q96SW2 whole entry): as the sequence (Q96SW2 whole entry) above
[GSPT1]-[compound of formula (I)]-[CRBN/DDB1] complex, sequence (Q16531 whole entry partner): as the sequence (Q16531 whole entry partner) above
CRBN/DDB1 protein complex, sequence (Q96SW2 whole entry, species assumed): as the sequence (Q96SW2 whole entry) above
CRBN/DDB1 protein complex, sequence (Q16531 whole entry partner, species assumed): as the sequence (Q16531 whole entry partner) above
[CK1α]-[compound]-[CRBN/DDB1] ternary complex, sequence (P48729 whole entry): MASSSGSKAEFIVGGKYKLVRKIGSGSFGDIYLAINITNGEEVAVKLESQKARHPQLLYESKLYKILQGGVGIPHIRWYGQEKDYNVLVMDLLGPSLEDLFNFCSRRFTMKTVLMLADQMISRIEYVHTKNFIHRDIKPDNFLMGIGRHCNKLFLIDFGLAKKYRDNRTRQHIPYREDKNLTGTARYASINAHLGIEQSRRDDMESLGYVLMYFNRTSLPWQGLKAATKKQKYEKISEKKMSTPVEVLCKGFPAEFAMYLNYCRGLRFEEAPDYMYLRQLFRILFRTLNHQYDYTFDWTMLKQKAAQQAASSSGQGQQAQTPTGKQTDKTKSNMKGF
[CK1α]-[compound]-[CRBN/DDB1] ternary complex, sequence (Q96SW2 whole entry): as the sequence (Q96SW2 whole entry) above
[CK1α]-[compound]-[CRBN/DDB1] ternary complex, sequence (Q16531 whole entry partner): as the sequence (Q16531 whole entry partner) above
T1 sequence (Q9UKS7 140-162 limits assumed): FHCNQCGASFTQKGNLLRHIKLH
T1 sequence (Q96SW2 whole entry): as the sequence (Q96SW2 whole entry) above
T1 sequence (Q16531 whole entry partner): as the sequence (Q16531 whole entry partner) above
T3 sequence (Q9UJQ4 410-432 limits assumed): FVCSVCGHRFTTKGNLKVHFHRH
T3 sequence (Q96SW2 whole entry): as the sequence (Q96SW2 whole entry) above
T3 sequence (Q16531 whole entry partner): as the sequence (Q16531 whole entry partner) above

One may read the Ki as the equilibrium dissociation constant of an inhibitor or competing ligand from its target. In the case of `Cc1nc2cc(COC(=O)Nc3cccc(-c4ccccc4)c3)ccc2cc1C1CCC(=O)NC1=O` (stereo not drawn) [Compound 46, (3-(2,6-dioxopiperidin-3-yl)-2-methylquinolin-7-yl)methyl [1,1′-biphenyl]-3-ylcarbamate], the activation at 1 µM in experiment [1] is under 10%; in experiment [2], under 10%; in experiment [3], under 10%; in experiment [4], under 10%; in experiment [5], 10 to 50%. Also, the Ki in experiment [6] lay in the range of 500 to 1000 nM.
Take `Cc1ccc(NC(=O)OCc2cc3nc(C)c(C4CCC(=O)NC4=O)cc3cc2F)cc1Cl` (stereo not drawn) [Compound 49, (3-(2,6-dioxopiperidin-3-yl)-6-fluoro-2-methylquinolin-7-yl)methyl (3-chloro-4-methylphenyl)carbamate]: the activation at 1 µM in experiment [1] was under 10%; in experiment [2], under 10%; in experiment [3], under 10%; in experiment [4] it was under 10%; in experiment [5], 10 to 50%. Besides, the Ki in experiment [6] is over 1000 nM.
On to `Cc1ccc(NC(=O)OCc2ccc3cc(C4CCC(=O)NC4=O)c(C)nc3c2F)cc1Cl` (stereo not drawn) [Compound 50, (3-(2,6-dioxopiperidin-3-yl)-8-fluoro-2-methylquinolin-7-yl)methyl (3-chloro-4-methylphenyl)carbamate], for which the activation at 1 µM in experiment [1] was under 10%; in experiment [2], under 10%; in experiment [3] it was under 10%; in experiment [4], under 10%; in experiment [5], over 50%. For the same compound, the Ki in experiment [6] lay in the range of 500 to 1000 nM.
With `Cc1ccc(NC(=O)NCc2ccc3nc(C)c(N4CCC(=O)NC4=O)cc3c2)cc1Cl` [Compound 51, 1-(3-chloro-4-methylphenyl)-3-((3-(2,4-dioxotetrahydropyrimidin-1(2H)-yl)-2-methylquinolin-6-yl)methyl)urea], the activation at 1 µM in experiment [1] is under 10%; in experiment [2] it was 10 to 25%; in experiment [3], 25 to 50%; in experiment [4], at least 50%; in experiment [5], 10 to 50%. Also, in experiment [6], the Ki was under 500 nM.
As for `Cc1ccc(NC(=O)OCc2ccc3cc(C4CCC(=O)NC4=O)c(C)nc3c2)c(Cl)c1Cl` (stereo not drawn) [Compound 54, (3-(2,6-dioxopiperidin-3-yl)-2-methylquinolin-7-yl)methyl (2,3-dichloro-4-methylphenyl)carbamate], the activation at 1 µM in experiment [1] is under 10%; in experiment [2], under 10%; in experiment [3], under 10%; in experiment [4], under 10%; in experiment [5], over 50%. Moreover, the inhibition constant Ki in experiment [6] fell in the range of 500 to 1000 nM.
On to `Cc1nc2cc(COC(=O)NC3CCC(C(C)(C)C)CC3)ccc2cc1C1CCC(=O)NC1=O` (stereo not drawn) [Compound 55, (3-(2,6-dioxopiperidin-3-yl)-2-methylquinolin-7-yl)methyl (4-(tert-butyl)cyclohexyl)carbamate], for which the activation at 1 µM in experiment [1] is under 10%; in experiment [2] it was under 10%; in experiment [3], under 10%; in experiment [4], under 10%; in experiment [5], over 50%. Moreover, in experiment [6], the Ki lay in the range of 500 to 1000 nM.
With `Cc1ncc(NC(=O)OCc2ccc3cc(C4CCC(=O)NC4=O)c(C)nc3c2)cc1Cl` (stereo not drawn) [Compound 58, (3-(2,6-dioxopiperidin-3-yl)-2-methylquinolin-7-yl)methyl (5-chloro-6-methylpyridin-3-yl)carbamate], the activation at 1 µM in experiment [1] is under 10%; in experiment [2], under 10%; in experiment [3], under 10%; in experiment [4], under 10%; in experiment [5] it was over 50%. In addition, in experiment [6], the Ki lay in the range of 500 to 1000 nM.
`COc1cnc(NC(=O)OCc2ccc3cc(C4CCC(=O)NC4=O)c(C)nc3c2)cn1` (stereo not drawn) [Compound 59, (3-(2,6-dioxopiperidin-3-yl)-2-methylquinolin-7-yl)methyl (5-methoxypyrazin-2-yl)carbamate]: the activation at 1 µM in experiment [1] is under 10%; in experiment [2] it was under 10%; in experiment [3], under 10%; in experiment [4] it was under 10%; in experiment [5], over 50%. In experiment [6], the Ki was under 500 nM.
On to `Cc1nc2cc(CNC(=O)Nc3cc(C(C)(C)C)no3)ccc2cc1N1CCC(=O)NC1=O` [Compound 64, 1-(3-(tert-butyl)isoxazol-5-yl)-3-((3-(2,4-dioxotetrahydropyrimidin-1(2H)-yl)-2-methylquinolin-7-yl)methyl)urea], for which the activation at 1 µM is under 10% in experiment [1]; under 10% in experiment [2]; under 10% in experiment [3]; under 10% in experiment [4]; 10 to 50% in experiment [5]. Moreover, the Ki in experiment [6] is under 500 nM.
As to `Cc1nc2ccc(COC(=O)Nc3cc(C(C)(C)C)no3)cc2cc1N1CCC(=O)NC1=O` [Compound 66, (3-(2,4-dioxotetrahydropyrimidin-1(2H)-yl)-2-methylquinolin-6-yl)methyl (3-(tert-butyl)isoxazol-5-yl)carbamate], the activation at 1 µM is 10 to 25% in experiment [1]; 10 to 25% in experiment [2]; 25 to 50% in experiment [3]; 25 to 50% in experiment [4]; over 50% in experiment [5]. Also, in experiment [6], the Ki is under 500 nM.
As for `Cc1nc2ccc(CNC(=O)Nc3cc(C(C)(C)C)no3)cc2cc1N1CCC(=O)NC1=O` [Compound 67, 1-(3-(tert-butyl)isoxazol-5-yl)-3-((3-(2,4-dioxotetrahydropyrimidin-1(2H)-yl)-2-methylquinolin-6-yl)methyl)urea], the activation at 1 µM in experiment [1] is 10 to 25%; in experiment [2] it was 25 to 50%; in experiment [3], at least 50%; in experiment [4] it was 25 to 50%; in experiment [5] it was over 50%. Also, in experiment [6], the Ki was under 500 nM.
As to `Cc1nc2cc(COC(=O)Nc3cc(C(F)(F)F)n[nH]3)ccc2cc1C1CCC(=O)NC1=O` (stereo not drawn) [Compound 69, (3-(2,6-dioxopiperidin-3-yl)-2-methylquinolin-7-yl)methyl (3-(trifluoromethyl)-1H-pyrazol-5-yl)carbamate], the activation at 1 µM in experiment [1] is under 10%; in experiment [2], under 10%; in experiment [3], under 10%; in experiment [4], under 10%; in experiment [5], over 50%. Besides, the Ki in experiment [6] is over 1000 nM.
Take `Cc1nc2cc(COC(=O)Nc3cc(C(C)(C)C)on3)ccc2cc1C1CCC(=O)NC1=O` (stereo not drawn) [Compound 70, (3-(2,6-dioxopiperidin-3-yl)-2-methylquinolin-7-yl)methyl (5-(tert-butyl)isoxazol-3-yl)carbamate]: the activation at 1 µM is under 10% in experiment [1]; under 10% in experiment [2]; under 10% in experiment [3]; under 10% in experiment [4]; over 50% in experiment [5]. The Ki in experiment [6] was under 500 nM.
For the compound `Cc1nc2cc(COC(=O)Nc3cc(C(F)(F)F)no3)ccc2cc1C1CCC(=O)NC1=O` (stereo not drawn) [Compound 71, (3-(2,6-dioxopiperidin-3-yl)-2-methylquinolin-7-yl)methyl (3-(trifluoromethyl)isoxazol-5-yl)carbamate], the activation at 1 µM in experiment [1] is under 10%; in experiment [2], under 10%; in experiment [3] it was under 10%; in experiment [4] it was under 10%; in experiment [5], over 50%. Further, the Ki in experiment [6] was over 1000 nM.
`Cc1nc2cc(COC(=O)Nc3cc(C(C)(C)C)no3)ccc2cc1N1CCC(=O)NC1=O` [Compound 72, (3-(2,4-dioxotetrahydropyrimidin-1(2H)-yl)-2-methylquinolin-7-yl)methyl (3-(tert-butyl)isoxazol-5-yl)carbamate]: the activation at 1 µM in experiment [1] is under 10%; in experiment [2], under 10%; in experiment [3] it was under 10%; in experiment [4] it was under 10%; in experiment [5], 10 to 50%. In addition, the Ki in experiment [6] lay within 500 to 1000 nM.
As to `Cc1ccc(NC(=O)OCc2ccc3cc(C4(F)CCC(=O)NC4=O)c(C)nc3c2)cc1Cl` (stereo not drawn) [Compound 74, (3-(3-fluoro-2,6-dioxopiperidin-3-yl)-2-methylquinolin-7-yl)methyl (3-chloro-4-methylphenyl)carbamate], the activation at 1 µM in experiment [1] was under 10%; in experiment [2], under 10%; in experiment [3] it was under 10%; in experiment [4] it was under 10%; in experiment [5], 10 to 50%. Further, the Ki in experiment [6] was over 1000 nM.
